In assay [1] the test system is Jurkat-PD-1-NFAT-LUC cells. As to the kind of experiment: IL-2 secretion by Jurkat-PD-1-NFAT-LUC cells co-cultured with Raji-PD-L1 cells (ELISA). The class given is cell-based, human. Particulars: 6 hours, FIG. 1D. Here is the method:
(1) Jurkat cells were used to construct a stable cell line expressing PD-1. The pCAGin-PD-1 plasmid was electroporated into Jurkat cells, which were then screened with 900 μg/mL G418 antibiotic and flow-sorted for single clones. Jurkat-PD-1 cells were then electroporated into a DNA fragment that controls the luciferase gene through the NFAT-binding site (referred to as NFAT-LUC). A single clone was then flow-sorted and named clone 5. Using this cell, the expression level of IL-2 can be measured by the activity of luciferase. Raji cells stably expressing PD-L1 were constructed, and the pCDNA-PD-L1 plasmid was electroporated into the Raji cells, followed by screening with 2 μg/mL puromycin, and then flow-sorted single clones and named clone 1.
(3) A 96-well plate was coated with 10 μg/mL CD3 antibody/10 μg/mL CD28 antibody overnight at 4° C. and excess antibody was washed off with PBS. Raji cells or Raji-PD-L1 cells were co-cultured with Jurkat-PD-1-NFAT-LUC cells at a ratio of 1:1, or to a mixture of Raji-PD-L1 cells and Jurkat-PD-1-NFAT-LUC cells at a ratio of 1:1 was added 1 μM MTC or 10 μg/mL PD1 antibody for co-culture; after 6 hours of co-culture, the secretion of IL-2 in the supernatant was measured by ELISA.
On the technique in general: ELISA stands for enzyme-linked immunosorbent assay.

Assay [2] deals with OT-1 CTL cells. Briefly: Secretion of CTL effector molecules on co-culture with EG7-PD-L1 target cells (flow cytometry). It is filed as cell-based, mouse. Particulars: CTL : EG7-PD-L1 1:1, GolgiPlug 6 hours; FIG. 3. Here is the method: (1) Preparation of CTL cells: The spleens of OT1 mice were obtained, ground and added with red blood cell lysate, to prepare single-cell suspension. The culture medium was 1640+10% FBS+50 μM βME+10 nM IL-2. Cell density was adjusted to about 2-4 million/mL. The cells were added with 10 nM OVA257-264, and cultured in a cell incubator at 37° C., 5% CO2. From the day of CTL preparation, cells were stained with FITC-labeled PD-1 antibody every day, and the changes of PD-1 expression on the cell surfaces were detected by flow cytometry.
(3) CTL cells and target cells EG7 (EL4 lymphoma cells expressing chicken ovalbumin) were mixed and cultured at a concentration of 1:1. The cell mixture was treated with 1 μM protein transport inhibitor GolgiPlug™ for 6 hours, and then fixed by 4% paraformaldehyde. The cells were then treated with 0.1% saponin, and stained with antibodies against each effector molecule. The effect of MTC on the secretion of CTL effector molecules was detected by flow cytometry.
(In general: In flow cytometry, cells or beads pass a laser one at a time.)

For assay [3], the system named is EG-7-PD-L1 cells. As to the kind of experiment: CTL killing of EG-7-PD-L1 target cells (PI staining, flow cytometry). It is filed as cell-based, mouse. Particulars: CTL : EG-7-PD-L1 5:1; 1 μM, 5 μM, 10 μM MTC, 4 hours; FIG. 4A. Here is the method:
(1) The preparation of CTL cells was described in Example 2.
(2) EG-7-PD-L1 cells were labeled with 5 nM CFSE. CTL cells and EG-7-PD-L1 were mixed at a ratio of 5:1, treated with 1 μM, 5 μM, and 10 μM MTC, respectively, for 4 hours, and then stained with 10 μg/mL PI. The apoptosis of target cells EG-7-PD-L1 was detected by flow cytometry, and then the killing ability of CTL cells to target cells was assessed.

Assay [4] concerns B16-OVA cells. Briefly: CTL killing of IFN-γ-treated B16-OVA melanoma cells (microscope). The class given is cell-based, mouse. Here is the method: (3) Melanoma cells B16-OVA (B16 cells expressing OVA gene) were treated with 10 μg/mL IFN-γ for 24 hours, and then mixed with CTL cells at a ratio of 1:5 and co-cultured for 4 hours. Cells were treated with 1 μM MTC. B16-OVA cells treated with DMSO or MTC only (without IFN-γ treatment) were used as control. The apoptosis of B16-OVA was observed by microscope, and then the killing ability of CTL cells to target cells was assessed.
(§1) (4) The B16-OVA group received no treatment, and the medium was replaced with water in the Water group. The other groups were treated with 10 μg/mL IFNγ. After 24 hours, except for the B16-OVA group, each group was co-cultured with CTL cells at a ratio of 1:5 for 4 hours, and treated with MTC […], LMT (1 μM) or anti-PD1 (PD-1 antibody, 10 μg/mL, Nivolumab, BMS). The death of B16-OVA in each group was observed by microscope, and then the killing ability of CTL cells to target cells was assessed. […] The IFN-γ+MTC group and the IFN-γ+LMT group were treated with 10 μg/mL IFN-γ for 24 hours. The cells were then mixed with CTL cells at a ratio of 1:5, co-cultured for 4 hours and treated with MTC (1 μM) or LMT (1 μM). The MTC and LMT groups were treated with MTC (10 μM) or LMT (10 μM) only. The killing ability against target cells was observed.

For assay [5], the system named is B16-WT cells. As to the kind of experiment: Killing of B16-WT melanoma cells, with or without CTL cells. Particulars: FIG. 4E. The class given is cell-based, mouse. Here is the method:
as §1

Assay [6] addresses T1, PD-1 recruitment of SHP2 (Homo sapiens, UniProt Q06124+Q15116).
T1 construct: expressed in transfected cells
As to the kind of experiment: Co-IP of PD-1-Flag and SHP2 in 293T cells. It is filed as cell-based. Particulars: 293T co-transfected with PD-1-Flag and SHP2 plasmids, MTC at different concentrations; FIG. 7C. Here is the method:
(3) The PD-1-Flag plasmid and SHP2 plasmid were co-transfected in 293T cells, and the cells were then treated with MTC at different concentrations. The ability of PD-1 to recruit SHP2 was detected by Co-IP.

T1 sequence (Q15116 25-288): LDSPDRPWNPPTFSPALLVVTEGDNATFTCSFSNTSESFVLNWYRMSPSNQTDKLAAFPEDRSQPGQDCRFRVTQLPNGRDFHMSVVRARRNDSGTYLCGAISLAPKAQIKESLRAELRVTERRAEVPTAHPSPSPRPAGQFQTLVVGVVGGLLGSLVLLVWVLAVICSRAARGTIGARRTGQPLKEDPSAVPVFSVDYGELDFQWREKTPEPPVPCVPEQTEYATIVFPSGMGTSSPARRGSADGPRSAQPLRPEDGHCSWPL
T1 sequence (Q06124 whole entry): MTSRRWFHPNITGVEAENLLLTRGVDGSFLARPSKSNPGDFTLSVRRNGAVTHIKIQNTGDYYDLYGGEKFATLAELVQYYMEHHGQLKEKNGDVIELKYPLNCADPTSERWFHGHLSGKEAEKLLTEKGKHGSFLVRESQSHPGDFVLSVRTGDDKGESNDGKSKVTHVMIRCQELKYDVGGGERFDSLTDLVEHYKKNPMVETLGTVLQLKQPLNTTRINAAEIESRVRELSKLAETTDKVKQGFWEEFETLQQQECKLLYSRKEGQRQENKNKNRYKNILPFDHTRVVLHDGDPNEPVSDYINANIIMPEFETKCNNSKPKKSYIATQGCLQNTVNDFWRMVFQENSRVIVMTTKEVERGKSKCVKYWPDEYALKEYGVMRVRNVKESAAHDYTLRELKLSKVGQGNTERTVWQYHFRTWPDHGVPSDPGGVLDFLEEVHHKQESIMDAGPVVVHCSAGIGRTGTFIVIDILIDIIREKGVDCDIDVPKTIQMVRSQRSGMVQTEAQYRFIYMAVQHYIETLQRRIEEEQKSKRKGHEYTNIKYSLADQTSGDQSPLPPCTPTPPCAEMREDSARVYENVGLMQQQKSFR

Regarding `CN(C)c1ccc2nc3ccc(N(C)C)cc3[s+]c2c1` [MTC, 3,7-bis(dimethylamino)-phenothiazine-5-ium chloride], the “function of Jurkat cells inhibited by PD-1, compared with the PD-1 antibody group” value in assay [1] (1 μM MTC vs 10 μg/mL PD1 antibody) was “significantly improved”. Moreover, the “secretion of IL-2 in the supernatant” value in assay [1] (Raji-PD-L1 : Jurkat-PD-1-NFAT-LUC 1:1, CD3/CD28 antibody coated plate, 1 μM MTC or 10 μg/mL PD1 antibody) is “sharply enhanced”. For the same molecule, in assay [2], the “secretion of Granzyme B in CTL cells” value is reported as “increased sharply”, the “secretion of IFNγ in CTL cells” value is on record as “increased sharply”, the “secretion of IL-2 in CTL cells” value was “increased sharply” and the “secretion of perforin in CTL cells” value is listed as “increased sharply”. Moreover, in assay [3], the “killing ability of CTL cells against EG-7-PD-L1” value is given as “significantly restored”. Besides, in assay [4] (B16-OVA treated with 10 μg/mL IFNγ 24 hours, B16-OVA : CTL 1:5, 4 hours, MTC (1 µM), LMT (1 μM), FIGS. 4C and 4D), the “killing effects of CTL cells to B16-OVA cells” value is “significantly enhanced”. The “combined killing effect with CTL cells on B16-OVA compared with the anti-PD-1 group” value in assay [4] (MTC (1 µM) or LMT (1 μM) vs anti-PD1 10 μg/mL, FIG. 4D) is “significantly stronger than that of the anti-PD-1 group”. The “killing effect on B16-WT cells, combination with CTL cells” value in assay [5] (IFN-γ 10 μg/mL 24 hours, B16-WT : CTL 1:5, 4 hours, MTC (1 μM) or LMT (1 μM)) was “no killing effect”. Besides, the “killing effect on B16-WT cells, compound only” value in assay [5] (MTC (10 μM) or LMT (10 μM) only) is on record as “no killing effect”. For the same molecule, the “binding of PD-1 to SHP2 (Co-IP)” value in assay [6] is “prevented the binding of PD-1 to SHP2”.

Source of the values: patent US20220323454A1, “PHENOTHIAZINES AND THEIR DERIVATIVES FOR USE AS A MEDICAMENT” (Guangzhou Virotech Pharmaceutical Co., Ltd., priority 2019, published 2022).
